Experimental data published in a compilation of properties of binary mixtures (doi:10.1016/j.molliq.2017.07.014).

Assay: xn = mol fraction of the nth substance listed
Settings: 101 kPa

CN1CCCC1=O + CCCC[P+](C)(CCCC)CCCC.COS(=O)(=O)[O-]
x2 = 0
Settings	speed of sound [m/s]	viscosity [mPa·s]
293.15 K	1570	1.9
298.15 K	1566	1.66
303.15 K	1552	1.49
308.15 K	1527	1.38
313.15 K	1518	1.3
318.15 K	1497	1.21
323.15 K	1491	1.15

CCCC[P+](C)(CCCC)CCCC.COS(=O)(=O)[O-] + CN1CCCC1=O
Settings	speed of sound [m/s]	viscosity [mPa·s]
293.15 K, x1 = 0.056	1574	9.6
293.15 K, x1 = 0.0914	1580	19.6
293.15 K, x1 = 0.1311	1585	28
293.15 K, x1 = 0.1773	1588	43
293.15 K, x1 = 0.2318	1590	67
293.15 K, x1 = 0.2971	1587	100
293.15 K, x1 = 0.3764	1582	138
293.15 K, x1 = 0.4752	1578	188
293.15 K, x1 = 0.6014	1575	290
293.15 K, x1 = 0.7129	1573	440
293.15 K, x1 = 0.8515	1568	580
293.15 K, x1 = 0.9022	1566	630
293.15 K, x1 = 0.9468	1565	680
293.15 K, x1 = 1	1564	730
298.15 K, x1 = 0.0914	1576	13.2
298.15 K, x1 = 0.1311	1580	18
298.15 K, x1 = 0.1773	1584	23.7
298.15 K, x1 = 0.2318	1585	39
298.15 K, x1 = 0.2971	1581	51
298.15 K, x1 = 0.4752	1572	114
298.15 K, x1 = 0.6014	1567	170
298.15 K, x1 = 0.8515	1553	410
298.15 K, x1 = 0.9022	1551	450
298.15 K, x1 = 0.9468	1549	490
303.15 K, x1 = 0.056	1556	2.01
303.15 K, x1 = 0.1311	1564	7.8
303.15 K, x1 = 0.3764	1561	40
303.15 K, x1 = 0.4752	1557	65
303.15 K, x1 = 0.6014	1552	108
303.15 K, x1 = 0.7129	1548	198
303.15 K, x1 = 0.8515	1538	300
303.15 K, x1 = 1	1530	380
308.15 K, x1 = 0.056	1536	2.01
308.15 K, x1 = 0.0914	1540	2.5
308.15 K, x1 = 0.1311	1544	3.4
308.15 K, x1 = 0.1773	1548	6.4
308.15 K, x1 = 0.2318	1549	8.9
308.15 K, x1 = 0.2971	1546	13.9
308.15 K, x1 = 0.3764	1542	20.5
308.15 K, x1 = 0.4752	1539	31
308.15 K, x1 = 0.6014	1536	67
308.15 K, x1 = 0.7129	1533	131
308.15 K, x1 = 0.8086	1528	192
308.15 K, x1 = 0.8515	1524	221
308.15 K, x1 = 0.9022	1522	245
308.15 K, x1 = 0.9468	1519	270
308.15 K, x1 = 1	1514	290
313.15 K, x1 = 0.0914	1536	2.21
313.15 K, x1 = 0.1311	1539	3.2
313.15 K, x1 = 0.2318	1542	6.8
313.15 K, x1 = 0.2971	1539	12.1
313.15 K, x1 = 0.3764	1535	15.2
313.15 K, x1 = 0.4752	1531	17.7
313.15 K, x1 = 0.6014	1526	45
313.15 K, x1 = 0.7129	1522	95
313.15 K, x1 = 0.8086	1517	144
313.15 K, x1 = 0.8515	1515	166
313.15 K, x1 = 0.9022	1509	186
313.15 K, x1 = 0.9468	1507	201
313.15 K, x1 = 1	1499	217
318.15 K, x1 = 0.056	1511	1.1
318.15 K, x1 = 0.0914	1518	2.5
318.15 K, x1 = 0.1311	1522	4.5
318.15 K, x1 = 0.1773	1523	6.4
318.15 K, x1 = 0.2971	1521	10.2
318.15 K, x1 = 0.3764	1518	12.1
318.15 K, x1 = 0.4752	1515	12.3
318.15 K, x1 = 0.6014	1511	32
318.15 K, x1 = 0.8515	1502	128
318.15 K, x1 = 0.9022	1498	144
318.15 K, x1 = 0.9468	1495	159
318.15 K, x1 = 1	1486	169
323.15 K, x1 = 0.056	1506	1.11
323.15 K, x1 = 0.1311	1517	3.8
323.15 K, x1 = 0.1773	1518	5.7
323.15 K, x1 = 0.2318	1518	10.1
323.15 K, x1 = 0.2971	1515	11.1
323.15 K, x1 = 0.3764	1512	13.1
323.15 K, x1 = 0.4752	1508	13.2
323.15 K, x1 = 0.7129	1499	59
323.15 K, x1 = 0.8086	1495	88
323.15 K, x1 = 0.8515	1491	103
323.15 K, x1 = 0.9022	1488	116
323.15 K, x1 = 0.9468	1484	124
323.15 K, x1 = 1	1472	133
